Measured values published in patent publication US20100119997A1, “METHOD FOR PRODUCTION OF MESENCHYMAL CELL, METHOD FOR PRODUCTION OF TOOTH, AND MESENCHYMAL CELL FOR FORMATION OF TOOTH” (ORGAN TECHNOLOGIES INC., priority 2007, published 2010).

Tests used:
[1] = tested on: AT805 cells (EC cells); assay: Differentiation induction of EC cells by DMSO, CD44/CD29 double staining and cell sorter; format: cell-based, mouse; conditions: for CD44-positive and CD29-positive cells / Cell number: 14 h treatment
Description: As the EC cells, AT805 cells (a clone derived from OTT6050, EC cells of the strain129; obtained from the Cell Bank, RIKEN Bioresource Center) were used. Culturing of AT805 cells was performed using Dulbecco's modified Eagle's medium (DMEM; manufactured by SIGMA or Kohjin Bio Co. Ltd.) supplemented with 10% by volume fetal calf serum (FCS: manufactured by JRH, JBS or Hyclone) and 55 μM 2-mercaptoethanol (manufactured by GIBCO). EC cells were usually plated at a concentration of 5 to 8×10^5 cells per 100 mm dish, and complete replacement of the medium and passage culture were repeated every other day. In passage culture, the cells were washed once with HCMF buffer (pH7.4; 10 mM Hepes, 136.9 mM NaCl, 0.34 mM […], 13.9 mM glucose, 5.37 mM KCl), and 5 ml of an enzyme solution wherein trypsin-EDTA.2Na (manufactured by GIBCO) was dissolved at the final concentration of 0.025% was then added thereto, followed by an enzyme treatment at 37° C. for 1 minute. Subsequently, an equal amount of DMEM supplemented with 10% FCS was added to disperse the cells, and the cells were then precipitated and collected by centrifugation. The collected cells were resuspended and plated on a new culture dish to carry out passage culture.
EC cells collected by trypsin treatment were suspended in DMEM supplemented with 10% by volume FCS and dimethylsulfoxide (DMSO: manufactured by SIGMA) at the final concentration of 0.5 to 5% by volume, and plated at the concentration of 1.0×10^6 cells per 100 mm dish. Culture was carried out under 5% CO2 at 37° C., and after 14 hours, the cells were washed once with HCMF buffer, followed by replacement of the medium with DMEM supplemented with 10% by volume FCS.
EC cells treated with DMSO was continuously cultured for 6 days (19 days only in the case of 5% by volume DMSO) with replacement of a half amount of the medium every 3 days with DMEM supplemented with 10% by volume FCS, and observation was carried out as appropriate. When a cell population containing undifferentiated cells was grown, it washed once with HCMF buffer and then suspended by addition of Ca^2+/Mg^2+-free PBS(−)(EDTA/BSA-PBS) supplemented with 3 mM EDTA and 0.5% BSA, followed by centrifugation to collect cells as precipitates. The cells were resuspended in EDTA/BSA-PBS and then subjected to double staining with an FITC-labeled anti-CD44 antibody (CD44-FITC: manufactured by BD Pharmingen) and a PE-labeled anti-CD29 antibody (CD29-PE: manufactured by BD Pharmingen). A CD44-positive and CD29-positive cell fraction was isolated using a cell sorter, Epics ALTRA (manufactured by Beckman Coulter), to obtain an EC cell fraction wherein differentiation was induced by a DMSO treatment and undifferentiated EC cell were excluded (see FIG. 2). These cells were designated DMSO-EC cells.

[2] = tested on: AT805 cells (EC cells); assay: Differentiation induction of EC cells by retinoic acid, CD44/CD29 double staining and cell sorter; format: cell-based, mouse; conditions: 72 h treatment, 7 culture days
Description: AT805 cells collected by a trypsin treatment in the same manner as in Example 1 were plated at a concentration of 1.0×10^6 cells per 100 mm dish, and, on the next day, the medium was replaced with DMEM supplemented with 10% by volume FCS, which was also added with retinoic acid (manufactured by SIGMA) at a final concentration of 0 to 10.0 μM, to stimulate the cells. After 72 hours of culture, the cells were washed twice with HCMF buffer, and the whole medium was replaced with DMEM supplemented with 10% by volume FCS only.
Culturing was continued for 7 days with replacement of a half amount of the medium every 3 days with DMEM supplemented with 10% by volume FCS, and observation was carried out as appropriate. A cell population grown after the RA treatment, which contains undifferentiated cells, was washed once with HCMF, and 3 mM EDTA-0.5% BSA-PBS(−) was added thereto, followed by incubation thereof at 37° C. After collecting cells, the cells were subjected to double staining with CD44 FITC (BD Pharmingen) and CD29 (BD Pharmingen) PE to separate and obtain CD44-positive and CD29-positive cells using Epics ALTRA (Beckman Coulter), and thus a cell population after exclusion of undifferentiated cells, which cell population is composed of only differentiated cells, was obtained. These cells were designated RA-EC cells.

[3] = DMSO 5.0 v/v %, 19 culture days

SMILES: C[S+](C)[O-] [DMSO, dimethyl sulfoxide]
- Survival of EC cells immediately after treatment ([1]; 5% by volume DMSO): most cells died immediately after the treatment
- CD44-positive and CD29-positive cells ([1]; DMSO 0.5 v/v %, 6 culture days): 0.3%
- Cell number ([1]; DMSO 0.5 v/v %, 6 culture days): 1.15 ×10^7 cells
- CD44-positive and CD29-positive cells ([1]; DMSO 1.0 v/v %, 6 culture days): 0.5%
- Cell number ([1]; DMSO 1.0 v/v %, 6 culture days): 1.19 ×10^7 cells
- CD44-positive and CD29-positive cells ([1]; DMSO 2.5 v/v %, 6 culture days): 13.7%
- Cell number ([1]; DMSO 2.5 v/v %, 6 culture days): 1.64 ×10^7 cells
- CD44-positive and CD29-positive cells [1, 3]: 93.0%
- Cell number [1, 3]: 2.83 ×10^7 cells

SMILES: CC1=C(/C=C/C(C)=C/C=C/C(C)=C/C(=O)O)C(C)(C)CCC1 [RA, retinoic acid]
- CD44-positive and CD29-positive cells ([2]; RA 0.5 μM): 10.8%
- Cell number ([2]; RA 0.5 μM): 1.5 ×10^6 cells
- CD44-positive and CD29-positive cells ([2]; RA 1.0 μM): 10.0%
- Cell number ([2]; RA 1.0 μM): 1.1 ×10^6 cells
- CD44-positive and CD29-positive cells ([2]; RA 2.0 μM): 11.3%
- Cell number ([2]; RA 2.0 μM): 1.3 ×10^6 cells
- CD44-positive and CD29-positive cells ([2]; RA 5.0 μM): 11.5%
- Cell number ([2]; RA 5.0 μM): 0.5 ×10^6 cells
- CD44-positive and CD29-positive cells ([2]; RA 10.0 μM): 10.4%
- Cell number ([2]; RA 10.0 μM): 0.7 ×10^6 cells
